In US20110274697A1, “NOVEL USES” (priority 2009, published 2011):

What was measured:
[1] = system: cells with low CD20 density; conditions: compared to rituximab; especially in cells with low CD20 density, as in CLL; cited from earlier work
[2] = biological target: T1, CD20 on JVM-3 cells (Homo sapiens, UniProt P11836); assay: FACS binding of fluorescently labeled anti-CD20 antibodies to JVM-3 cells; conditions: fluorescently labeled antibody, BD FACSCanto, FIG. 2
T1 construct: medium level expression profile of CD20 on JVM-3 cells; endogenous in cells; host or cells: JVM-3 cells
T1 sequence (P11836 1-297): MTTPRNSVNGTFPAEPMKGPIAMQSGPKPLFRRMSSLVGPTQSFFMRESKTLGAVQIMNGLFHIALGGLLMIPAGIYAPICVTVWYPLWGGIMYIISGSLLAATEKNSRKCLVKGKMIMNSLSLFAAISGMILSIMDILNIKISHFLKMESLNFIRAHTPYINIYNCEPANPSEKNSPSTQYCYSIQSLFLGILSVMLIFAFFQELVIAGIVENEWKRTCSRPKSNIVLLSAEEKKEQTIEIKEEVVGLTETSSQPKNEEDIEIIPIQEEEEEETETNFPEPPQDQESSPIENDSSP
Protocol: One microgram of each antibody was prepared in PBS and five microliters of the Zenon human IgG labeling reagent (Component A) was added to the antibody solution. The mixture was incubated for five minutes at room temperature and then five microliters of the Zenon blocking reagent (Component B) was added to the reaction mixture. After another five minutes at room temperature the complexes were ready to be used. 5×10^6 cells/ml of viable JVM-3 cells were resuspended in PBS. 100 ul of the cells were added to each tube. 10 ul of human IgG was added to block non-specific binding. The cells and human IgG were incubated for 10 minutes. […] The mixture was incubated for an additional 30 minutes on ice in the dark. Then 500 ul of PBS was added to the cells and they were centrifuged for 5 minutes at 1000 rpm. The supernatant was removed and 500 ul of PBS was added and the cells were centrifuged again. Again the supernatant was removed and the cells resuspended in 300 ul of PBS. The cells were analyzed on a BD FACSCanto.

ofatumumab: new generation, human monoclonal antibody that targets a membrane proximal, small loop epitope of the CD20 molecule; 2F2 antibody in WO2004/035607
induction of tumor cell lysis by CDC activity [1]: superior induction of tumor cell lysis by CDC
receptor bound on the cell surface [2]: bound more receptors on the cell surface than rituxan antibody did
